Test results reported in patent US10294202B2, “Pyrrolidinones as herbicides” (FMC Corporation, priority 2013, dated 2019).

Legend:
[1] = tested on: morningglory; assay: Test E preemergence herbicide test; type: in vivo, Ipomoea coccinea; parameters: key: 0 = no effect, 100 = complete control
Excerpt: (§1) Seeds of plant species selected from corn (Zea mays), soybean (Glycine max), velvetleaf (Abutilon theophrasti), lambsquarters (Chenopodium album), wild poinsettia (Euphorbia heterophylla), pigweed, palmer (palmer pigweed, Amaranthus palmeri), waterhemp (common waterhemp, Amaranthus rudis), surinam grass (Brachiaria decumbens), crabgrass, large (large crabgrass, Digitaria sanguinalis), crabgrass, Brazil (Brazilian crabgrass, Digitaria horizontalis), panicum, fall (fall panicum, Panicum dichotomiflorum), foxtail, giant (giant foxtail, Setaria faberii), foxtail, green (green foxtail, Setaria viridis), goosegrass (Eleusine indica), johnsongrass (Sorghum halepense), ragweed (common ragweed, Ambrosia elatior), barnyardgrass (Echinochloa crus-galli), sandbur (southern sandbur, Cenchrus echinatus), arrowleaf […] rhombifolia), ryegrass, Italian (Italian ryegrass, Lolium multiflorum), dayflower, VA (Virginia dayflower, Commelina virginica), field bindweed (Convolvulus arvensis), morningglory (Ipomoea coccinea), nightshade (eastern black nightshade, Solanum ptycanthum), kochia (Kochia scoparia), nutsedge, yellow (yellow nutsedge, Cyperus esculentus), cocklebur (common cocklebur, Xanthium strumarium), smartweed (ladysthumb smartweed, Polygonum Persicaria) and beggarticks (hairy beggarticks, Bidens pilosa), were planted into a silt loam soil and treated preemergence with test chemicals formulated in a non-phytotoxic solvent mixture which included a surfactant. Treated plants and controls were maintained in a greenhouse for 21 days, after which time all species were compared to controls and visually evaluated. Plant response ratings, summarized in Table E, are based on a scale of 0 to 100 where 0 is no effect and 100 is complete control. A dash (-) response means no test result.

[2] = tested on: arrowleaf sida; assay: Test E preemergence herbicide test; type: in vivo, Sida rhombifolia; parameters: key: 0 = no effect, 100 = complete control
Excerpt: as §1

[3] = tested on: chickweed; assay: Test D pre-/postemergence herbicide test; type: in vivo, Stellaria media; details: for Plant response rating: Chickweed, scale 0 to 100; for Plant response rating, Chickweed: scale 0 to 100 (0 no effect, 100 complete control)
Excerpt: (§2) Seeds of plant species selected from bluegrass (annual bluegrass, Poa annua), blackgrass (Alopecurus myosuroides), canarygrass (littleseed canarygrass, Phalaris minor), chickweed (common chickweed, Stellaria media), galium (catchweed bedstraw, Galium aparine), bromegrass, downy (downy bromegrass, Bromus tectorum), field poppy (Papaver rhoeas), field violet (Viola arvensis), foxtail, green (green foxtail, Setaria viridis), deadnettle (henbit deadnettle, Lamium amplexicaule), ryegrass, Italian (Italian ryegrass, Lolium multiflorum), kochia (Kochia scoparia), lambsquarters (Chenopodium album), oilseed rape (Brassica napus), pigweed (Amaranthus retroflexus), chamomile (scentless chamomile, Matricaria inodora), Russian thistle (Salsola kali), speedwell (bird's-eye speedwell, Veronica persica), barley, spring (spring barley, Hordeum vulgare), wheat, spring (spring wheat, Triticum aestivum), buckwheat, wild (wild buckwheat, Polygonum convolvulus), mustard, wild (wild mustard, Sinapis arvensis), oat, wild (wild oat, Avena fatua), radish, wild (wild radish, Raphanus raphanistrum), […]), barley, winter (winter barley, Hordeum vulgare), and wheat, winter (winter wheat, Triticum aestivum) were planted into a silt loam soil and treated preemergence with test chemicals formulated in a non-phytotoxic solvent mixture which included a surfactant. At the same time, these species were planted in pots containing Redi-Earth® planting medium (Scotts Company, 14111 Scottslawn Road, Marysville, Ohio 43041) comprising spaghnum peat moss, vermiculite, wetting agent and starter nutrients and treated with postemergence applications of the test chemicals formulated in the same manner. Plants ranged in height from 2 to 18 cm (1- to 4-leaf stage). Treated plants and controls were maintained in a controlled growth environment for 7 to 21 days after which time all species were compared to controls and visually evaluated. Plant response ratings, summarized in Table D, are based on a scale of 0 to 100 where 0 is no effect and 100 is complete control. A dash (-) response means no test result.

[4] = tested on: pigweed; assay: Test D pre-/postemergence herbicide test; type: in vivo, Amaranthus retroflexus; details: for Plant response rating: Postemergence, Pigweed, scale 0 to 100; for Plant response rating, Pigweed: Preemergence, scale 0 to 100 (0 no effect, 100 complete control)
Method in brief: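 Plants were sown in silt loam for preemergence spraying or in a peat moss/vermiculite mix for postemergence spraying at 2 to 18 cm height. Formulations used a non-phytotoxic solvent mixture with a surfactant. After 7 to 21 days, responses were scored visually from 0 (no effect) to 100 (complete control).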

[5] = tested on: buckwheat, wild; assay: Test D pre-/postemergence herbicide test; type: in vivo, Polygonum convolvulus; details: for Plant response rating: Buckwheat, Wild, scale 0 to 100; for Plant response rating, Buckwheat, Wild: scale 0 to 100 (0 no effect, 100 complete control)
Excerpt: as §2

[6] = tested on: barnyardgrass; assay: Test F flood (paddy) test; type: in vivo, Echinochloa crus-galli; details: 21 d, scale 0-100
Method in brief: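 Compounds were applied directly to paddy water held 3 cm above silt loam soil, with rice and weeds at the 2.0–2.5-leaf stage, grown in a greenhouse at 30/27° C under a 16-h photoperiod. Visual ratings (0 no effect to 100 complete control) were made against untreated controls after 21 d.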

Structure (SMILES): O=C1NCC(c2ccc(Cl)c(Cl)c2)C1C(=O)Nc1ccccc1F (racemic) [Compound 14]
- Plant response rating, Morningglory ([1]; 16 g ai/ha): 0
- Plant response rating, Morningglory ([1]; 31 g ai/ha): 0
- Plant response rating, Morningglory ([1]; 125 g ai/ha): 0
- Plant response rating, Morningglory ([1]; 250 g ai/ha): 0
- Plant response rating, Arrowleaf Sida ([2]; 16 g ai/ha): 0
- Plant response rating, Arrowleaf Sida ([2]; 31 g ai/ha): 0
- Plant response rating, Arrowleaf Sida ([2]; 62 g ai/ha): 0
- Plant response rating, Arrowleaf Sida ([2]; 125 g ai/ha): 0
- Plant response rating, Arrowleaf Sida ([2]; 250 g ai/ha): 0

Structure (SMILES): O=C1NCC(c2ccc(C(F)(F)F)cc2)C1C(=O)Nc1cccc(F)c1F (racemic) [Compound 202]
- Plant response rating, Morningglory ([1]; 31 g ai/ha): 0
- Plant response rating, Morningglory ([1]; 62 g ai/ha): 0
- Plant response rating, Morningglory ([1]; 125 g ai/ha): 0
- Plant response rating, Morningglory ([1]; 250 g ai/ha): 30
- Plant response rating, Arrowleaf Sida ([2]; 31 g ai/ha): 0
- Plant response rating, Arrowleaf Sida ([2]; 62 g ai/ha): 30
- Plant response rating, Arrowleaf Sida ([2]; 125 g ai/ha): 70
- Plant response rating, Arrowleaf Sida ([2]; 250 g ai/ha): 80
- Plant response rating ([3]; Postemergence, 31 g ai/ha): 75
- Plant response rating ([3]; Postemergence, 62 g ai/ha): 75
- Plant response rating ([3]; Postemergence, 125 g ai/ha): 80
- Plant response rating ([3]; Postemergence, 250 g ai/ha): 80
- Plant response rating, Chickweed ([3]; Preemergence, 62 g ai/ha): 80
- Plant response rating, Chickweed ([3]; Preemergence, 31 g ai/ha): 45
- Plant response rating ([3]; Preemergence, 125 g ai/ha): 90
- Plant response rating ([3]; Preemergence, 250 g ai/ha): 95
- Plant response rating ([4]; 31 g ai/ha): 75
- Plant response rating ([4]; 62 g ai/ha): 75
- Plant response rating ([4]; 125 g ai/ha): 75
- Plant response rating ([4]; 250 g ai/ha): 80
- Plant response rating, Pigweed ([4]; 62 g ai/ha): 80
- Plant response rating, Pigweed ([4]; 125 g ai/ha): 90
- Plant response rating, Pigweed ([4]; 31 g ai/ha): 75
- Plant response rating, Pigweed ([4]; 250 g ai/ha): 90
- Plant response rating ([5]; Postemergence, 31 g ai/ha): 0
- Plant response rating ([5]; Postemergence, 62 g ai/ha): 0
- Plant response rating ([5]; Postemergence, 125 g ai/ha): 0
- Plant response rating ([5]; Postemergence, 250 g ai/ha): 10
- Plant response rating, Buckwheat, Wild ([5]; Preemergence, 62 g ai/ha): 10
- Plant response rating, Buckwheat, Wild ([5]; Preemergence, 31 g ai/ha): 0
- Plant response rating ([5]; Preemergence, 125 g ai/ha): 10
- Plant response rating ([5]; Preemergence, 250 g ai/ha): 15

Structure (SMILES): O=C1NCC(c2cccc(C(F)F)c2)C1C(=O)Nc1ccccc1F (racemic) [Compound 210]
- Plant response rating, Barnyardgrass ([6]; 125 g ai/ha): 75
- Plant response rating, Barnyardgrass ([6]; 250 g ai/ha): 100
- Plant response rating, Barnyardgrass ([6]; 500 g ai/ha): 100

Structure (SMILES): O=C1NCC(c2ccc(OC(F)F)cc2)C1C(=O)Nc1cccc(F)c1F (racemic) [Compound 350]
- Plant response rating, Morningglory ([1]; 31 g ai/ha): 0
- Plant response rating, Morningglory ([1]; 62 g ai/ha): 0
- Plant response rating, Morningglory ([1]; 125 g ai/ha): 0
- Plant response rating, Morningglory ([1]; 250 g ai/ha): 0
- Plant response rating, Arrowleaf Sida ([2]; 31 g ai/ha): 0
- Plant response rating, Arrowleaf Sida ([2]; 62 g ai/ha): 0
- Plant response rating, Arrowleaf Sida ([2]; 125 g ai/ha): 20
- Plant response rating, Arrowleaf Sida ([2]; 250 g ai/ha): 50

Structure (SMILES): O=C1NCCC1C(=O)N(c1ccc(F)c(F)c1)c1ccccc1F (centres unmarked) [Compound 5, N-(3,4-difluorophenyl)-N-(2-fluorophenyl)-2-oxo-3-pyrrolidinecarboxamide]
- Plant response rating, Barnyardgrass ([6]; 125 g ai/ha): 55
- Plant response rating, Barnyardgrass ([6]; 250 g ai/ha): 65
- Plant response rating, Barnyardgrass ([6]; 500 g ai/ha): 75
- Plant response rating, Barnyardgrass ([6]; 1000 g ai/ha): 90
- Plant response rating, Barnyardgrass ([6]; 2000 g ai/ha): 90

Structure (SMILES): O=C1NCC(c2ccc(F)c(F)c2)C1C(=O)Nc1cccc(F)c1F (centres unmarked) [Compound 17, N-(2,3-difluorophenyl)-4-(3,4-difluorophenyl)-2-oxo-3-pyrrolidinecarboxamide]
- Plant response rating, Barnyardgrass ([6]; 125 g ai/ha): 90
- Plant response rating, Barnyardgrass ([6]; 250 g ai/ha): 90
- Plant response rating, Barnyardgrass ([6]; 500 g ai/ha): 90
- Plant response rating, Barnyardgrass ([6]; 1000 g ai/ha): 95
- Plant response rating, Barnyardgrass ([6]; 2000 g ai/ha): 100
- Plant response rating, Arrowleaf Sida ([2]; 16 g ai/ha): 0
- Plant response rating, Arrowleaf Sida ([2]; 31 g ai/ha): 0
- Plant response rating, Arrowleaf Sida ([2]; 62 g ai/ha): 0
- Plant response rating, Arrowleaf Sida ([2]; 125 g ai/ha): 0
- Plant response rating, Arrowleaf Sida ([2]; 250 g ai/ha): 0
- Plant response rating ([3]; Postemergence, 16 g ai/ha): 0
- Plant response rating ([3]; Postemergence, 31 g ai/ha): 0
- Plant response rating ([3]; Postemergence, 62 g ai/ha): 0
- Plant response rating ([3]; Postemergence, 125 g ai/ha): 25
- Plant response rating ([3]; Postemergence, 250 g ai/ha): 30
- Plant response rating ([4]; 16 g ai/ha): 0
- Plant response rating ([4]; 31 g ai/ha): 0
- Plant response rating ([4]; 62 g ai/ha): 40
- Plant response rating ([4]; 125 g ai/ha): 50
- Plant response rating ([4]; 250 g ai/ha): 50
- Plant response rating ([5]; Postemergence, 16 g ai/ha): 0
- Plant response rating ([5]; Postemergence, 31 g ai/ha): 0
- Plant response rating ([5]; Postemergence, 62 g ai/ha): 0
- Plant response rating ([5]; Postemergence, 125 g ai/ha): 10
- Plant response rating ([5]; Postemergence, 250 g ai/ha): 20

Structure (SMILES): CN1CC(c2ccc(F)c(F)c2)C(C(=O)Nc2cccc(F)c2F)C1=O (centres unmarked) [Compound 303]
- Plant response rating, Barnyardgrass ([6]; 62 g ai/ha): 100
- Plant response rating, Barnyardgrass ([6]; 125 g ai/ha): 100
- Plant response rating, Barnyardgrass ([6]; 250 g ai/ha): 100
- Plant response rating, Barnyardgrass ([6]; 500 g ai/ha): 100
